Measured values reported in ChEMBL document CHEMBL1201862, “PubChem BioAssay data set” (2004).
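Compound exposure: 48 hours, 5 concentrations, 96-well plates. Abbreviation: GI50, concentration required for 50% inhibition of growth.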 Calls of active or inactive are those of the source. Cut-off read from the data, not from the text of the source: active = GI50 up to about 1.1 µM and inactive = higher.

Tests used:
Experiment in all cases: inhibition of tumour cell growth, NCI panel, 48 h
[1] = system: NCI-H522
[2] = system: RPMI-8226
[3] = system: SNB-75
[4] = system: NCI-H226
[5] = system: HCT-116
[6] = system: K562
[7] = system: UACC-257
[8] = system: 786-0
[9] = system: TK-10
[10] = system: MOLT-4
[11] = system: HCC 2998
[12] = system: SK-OV-3
[13] = system: OVCAR-4
[14] = system: OVCAR-5
[15] = system: EKVX
[16] = system: IGROV-1
[17] = system: RXF 393
[18] = system: OVCAR-8
[19] = system: Hs-578T

SMILES	GI50 [1]	GI50 [2]	GI50 [3]	GI50 [4]	GI50 [5]	GI50 [6]	GI50 [7]	GI50 [8]	GI50 [9]	GI50 [10]	GI50 [11]	GI50 [12]	GI50 [13]	GI50 [14]	GI50 [15]	GI50 [16]	GI50 [17]	GI50 [18]	GI50 [19]
CCCCCCC(O)CC[C@H]1CCC[C@@H](C)N1 (stereo not given in full)	> 100 µM (inactive)	> 100 µM (inactive)	> 31.6 µM (inactive)	> 100 µM (inactive)	> 100 µM (inactive)	> 100 µM (inactive)	> 10 µM (inactive)	> 10 µM (inactive)	> 100 µM (inactive)	> 100 µM (inactive)	> 19.9 µM (inactive)	> 100 µM (inactive)	> 10 µM (inactive)	> 10 µM (inactive)	> 100 µM (inactive)	> 100 µM (inactive)	> 100 µM (inactive)	> 10 µM (inactive)	
O=C(c1cc2c(c3ccccc13)NCCN=C2C(F)(F)F)C(F)(F)F	20.6 µM (inactive)	6.95 µM (inactive)	21.6 µM (inactive)	18.5 µM (inactive)	26.7 µM (inactive)	7.16 µM (inactive)	19.3 µM (inactive)	20.8 µM (inactive)	24.9 µM (inactive)	7.11 µM (inactive)	17.5 µM (inactive)	37.4 µM (inactive)	38.7 µM (inactive)	65.3 µM (inactive)	47.4 µM (inactive)	29.6 µM (inactive)	23.3 µM (inactive)	34.5 µM (inactive)	14.3 µM (inactive)
O=S1(=O)OCCOS(=O)(=O)C1Cc1ccccc1	45.2 µM (inactive)	18.7 µM (inactive)	47.3 µM (inactive)	46.1 µM (inactive)	48.4 µM (inactive)	61 µM (inactive)	53.6 µM (inactive)	32.5 µM (inactive)	> 100 µM (inactive)	25.3 µM (inactive)	20 µM (inactive)	> 100 µM (inactive)	43.5 µM (inactive)	> 100 µM (inactive)	33.7 µM (inactive)	28.8 µM (inactive)	41.1 µM (inactive)	70.1 µM (inactive)	
O=C(COc1ccc(Cl)c(Cl)c1)N(Cc1ccccc1)Cc1ccc[n+](Cc2ccc(Cl)cc2S(=O)(=O)F)c1	94.6 µM (inactive)	13.3 µM (inactive)	> 100 µM (inactive)	> 100 µM (inactive)	> 100 µM (inactive)	53 µM (inactive)	35.4 µM (inactive)	> 100 µM (inactive)	53.3 µM (inactive)	21.4 µM (inactive)		> 100 µM (inactive)	> 100 µM (inactive)	> 100 µM (inactive)		40.6 µM (inactive)	> 100 µM (inactive)	> 100 µM (inactive)	40.8 µM (inactive)
CC1(C#N)CC(C)(C)C(/C=C2/CC(C)(C)C(/C=C3/OC(=N)CC3(C)C)=N2)=N1 (stereo not given)	14.2 µM (inactive)	20 µM (inactive)	31 µM (inactive)	40.6 µM (inactive)	28.9 µM (inactive)	22.5 µM (inactive)	18.8 µM (inactive)	24.9 µM (inactive)	31 µM (inactive)	28.7 µM (inactive)	32.2 µM (inactive)	20.4 µM (inactive)	20 µM (inactive)	80.4 µM (inactive)	21.7 µM (inactive)	17.6 µM (inactive)	15.2 µM (inactive)	22.9 µM (inactive)	19.2 µM (inactive)
CN1c2ccccc2N(C(=O)c2ccc(Cl)cc2)C(CC(=O)O)c2cccn21 (stereo not given)	> 100 µM (inactive)	> 100 µM (inactive)	> 100 µM (inactive)	> 100 µM (inactive)		> 100 µM (inactive)	> 100 µM (inactive)	> 100 µM (inactive)	> 100 µM (inactive)	> 100 µM (inactive)	> 100 µM (inactive)	> 100 µM (inactive)	> 100 µM (inactive)	> 100 µM (inactive)	> 100 µM (inactive)	> 100 µM (inactive)	> 100 µM (inactive)	> 100 µM (inactive)	
CCC(=O)C(C)C(=O)C(=O)C(=O)OC (stereo not given)	> 100 µM (inactive)	> 100 µM (inactive)	> 100 µM (inactive)	> 100 µM (inactive)	> 62.8 µM (inactive)	> 66.1 µM (inactive)	> 94.6 µM (inactive)	> 100 µM (inactive)	> 100 µM (inactive)	> 51.4 µM (inactive)	> 100 µM (inactive)	> 100 µM (inactive)	> 100 µM (inactive)	> 100 µM (inactive)	> 100 µM (inactive)	> 100 µM (inactive)	> 63.5 µM (inactive)	> 100 µM (inactive)	
CCCOc1ccc(/C(Cl)=C(\C=O)c2ccc(OC)c(OC)c2)cc1OCCC	2 µM (inactive)	2.7 µM (inactive)	11.9 µM (inactive)	13.2 µM (inactive)	2.64 µM (inactive)	6.1 µM (inactive)	11 µM (inactive)	20.8 µM (inactive)	28.1 µM (inactive)	2.31 µM (inactive)	3.53 µM (inactive)	30.1 µM (inactive)	7.03 µM (inactive)	39.3 µM (inactive)	10.9 µM (inactive)	27.9 µM (inactive)	3.28 µM (inactive)	11.9 µM (inactive)	
Brc1ccc2ns[s+]c2c1	4.79 µM (inactive)	4.71 µM (inactive)	> 60 µM (inactive)	> 26.3 µM (inactive)	2.7 µM (inactive)	0.321 µM (active)	14.9 µM (inactive)	98.2 µM (inactive)	5.28 µM (inactive)	4.65 µM (inactive)	5.25 µM (inactive)	> 100 µM (inactive)	> 20.9 µM (inactive)		13 µM (inactive)	26.7 µM (inactive)	> 100 µM (inactive)	> 43.9 µM (inactive)	
Cc1nnc2sc(-c3ccc(N)cc3)nn12	> 100 µM (inactive)	> 100 µM (inactive)	21.3 µM (inactive)	> 100 µM (inactive)	> 100 µM (inactive)	> 100 µM (inactive)	> 100 µM (inactive)	> 100 µM (inactive)	> 100 µM (inactive)	> 100 µM (inactive)	> 100 µM (inactive)	> 100 µM (inactive)	> 100 µM (inactive)	> 100 µM (inactive)	> 100 µM (inactive)	> 100 µM (inactive)	> 100 µM (inactive)	> 100 µM (inactive)	89.3 µM (inactive)
C=C(C)[C@@H]1CC[C@]2(C(=O)OC)CC[C@]3(C)[C@H](CC[C@@H]4[C@@]5(C)CC[C@H](O)C(C)(C)[C@@H]5CC[C@]43C)[C@@H]12 [METHYL BETULINATE]	18.9 µM (inactive)		21.6 µM (inactive)	20 µM (inactive)	17.4 µM (inactive)	20.5 µM (inactive)	19.3 µM (inactive)	19.7 µM (inactive)	> 10 µM (inactive)	18.8 µM (inactive)				26.8 µM (inactive)	21.7 µM (inactive)	18.1 µM (inactive)	14.5 µM (inactive)	21.5 µM (inactive)	21.6 µM (inactive)
